This note sets out measurements from patent US5965527A, “Cyclosporin compounds, their preparation and the pharmaceutical compositions which contain them” (Rhone-Poulenc Rorer, S.A., priority 1996, dated 1999).

This assay concerns retroviruses. Particulars: combined with AZT, ddl, Saquinavir and/or ribavirin.

In the case of “[(R)-2-(N,N-Dimethylamino)ethylthio-Sar]^3 -cyclosporin A [Example 2]”, the effect in combination result is “particularly advantageous effect”.
